PMC6612245 (Journal of the American Chemical Society, 2019)

Tests used:
Type in all cases: biochemical
ForC = target: T1, ForC (Streptomyces kaniharaensis, UniProt A0A5S9FY43); assay: anion exchange HPLC, substrate consumption; conditions: L-aspartate and ATP; 4 h
T1 sequence (A0A5S9FY43 1-333): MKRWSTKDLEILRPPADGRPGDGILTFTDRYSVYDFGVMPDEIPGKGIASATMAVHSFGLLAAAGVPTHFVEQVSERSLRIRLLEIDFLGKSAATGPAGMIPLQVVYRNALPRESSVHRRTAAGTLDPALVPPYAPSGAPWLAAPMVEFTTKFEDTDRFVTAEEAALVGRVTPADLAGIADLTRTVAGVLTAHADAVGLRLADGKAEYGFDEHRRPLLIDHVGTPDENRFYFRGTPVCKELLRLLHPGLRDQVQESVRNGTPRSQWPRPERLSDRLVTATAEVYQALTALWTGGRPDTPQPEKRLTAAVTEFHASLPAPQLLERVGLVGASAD

EcPurH [1] = target: T2, EcPurH (Escherichia coli, UniProt P15639); assay: enzymatic preparation of 6b; conditions: formylation to 6b
T2 sequence (P15639 whole entry): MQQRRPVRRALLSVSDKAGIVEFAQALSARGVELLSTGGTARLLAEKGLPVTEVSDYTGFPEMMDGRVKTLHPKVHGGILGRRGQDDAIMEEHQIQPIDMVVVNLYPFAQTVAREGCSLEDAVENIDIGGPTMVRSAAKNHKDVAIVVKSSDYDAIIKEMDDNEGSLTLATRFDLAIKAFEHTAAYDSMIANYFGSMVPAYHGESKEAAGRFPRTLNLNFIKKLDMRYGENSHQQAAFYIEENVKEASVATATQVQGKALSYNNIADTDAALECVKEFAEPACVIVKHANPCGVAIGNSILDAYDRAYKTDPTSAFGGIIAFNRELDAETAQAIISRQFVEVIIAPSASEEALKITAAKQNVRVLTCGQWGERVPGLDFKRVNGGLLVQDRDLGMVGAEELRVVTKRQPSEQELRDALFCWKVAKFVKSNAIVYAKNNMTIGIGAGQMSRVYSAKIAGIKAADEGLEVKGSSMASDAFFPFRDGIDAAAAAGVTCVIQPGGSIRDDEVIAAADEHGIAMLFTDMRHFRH

SkPurH = target: T3, SkPurH (Streptomyces kaniharaensis, UniProt A0A6N7KQI7); assay: HPLC of product 6b; conditions: N10-formyl-THF; formylation without cyclization; 1 h
T3 sequence (A0A6N7KQI7 24-525): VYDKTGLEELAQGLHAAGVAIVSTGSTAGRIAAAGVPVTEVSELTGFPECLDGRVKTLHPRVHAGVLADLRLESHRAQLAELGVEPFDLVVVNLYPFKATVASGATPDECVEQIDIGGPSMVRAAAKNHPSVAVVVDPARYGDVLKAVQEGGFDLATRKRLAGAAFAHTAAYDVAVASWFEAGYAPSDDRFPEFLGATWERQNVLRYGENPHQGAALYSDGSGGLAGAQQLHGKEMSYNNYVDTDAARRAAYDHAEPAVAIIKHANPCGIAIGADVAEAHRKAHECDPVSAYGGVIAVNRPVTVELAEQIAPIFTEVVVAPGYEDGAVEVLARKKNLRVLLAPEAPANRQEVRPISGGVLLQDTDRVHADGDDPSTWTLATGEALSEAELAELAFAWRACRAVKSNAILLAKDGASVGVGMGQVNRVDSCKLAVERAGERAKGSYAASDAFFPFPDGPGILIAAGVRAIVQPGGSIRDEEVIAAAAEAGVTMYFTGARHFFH

EcPurH [2] = target: T2, EcPurH; assay: HPLC; conditions: cyclization to 7a
ForH [3] = target: T4, ForH (Streptomyces kaniharaensis, UniProt A0A4V8H038); assay: HPLC of product 7a; conditions: cyclization to 7a; 10 min incubation
ForH [4] = target: T4, ForH; assay: HPLC of product 7b; conditions: cyclization to 7b; 10 min incubation

## Nc1c([C@@H]2O[C@H](COP(=O)(O)O)[C@@H](O)[C@H]2O)n[nH]c1C(=O)O [3b]
ForC
  anion exchange HPLC, substrate consumption: Incubation of 3b with ForC along with L-aspartate and ATP led to the production

## NC(=O)c1[nH]nc([C@@H]2O[C@H](COP(=O)(O)O)[C@@H](O)[C@H]2O)c1N [5b]
EcPurH [1]
  enzymatic preparation of 6b: 6b was enzymatically prepared from 5b using E. coli PurH as the catalyst
SkPurH
  HPLC of product 6b: incubation of 5b with S. kaniharaensis PurH (SkPurH) resulted in formylation of the pyrazolic amide

## NC(=O)c1ncn([C@@H]2O[C@H](COP(=O)(O)O)[C@@H](O)[C@H]2O)c1NC=O [6a]
EcPurH [2]
  HPLC (supplement): 6a could be processed to 7a, while 6b could not be converted to 7b
ForH [3]
  HPLC of product 7a: ForH demonstrates cyclase activity towards both 6a and 6b

## NC(=O)c1[nH]nc([C@@H]2O[C@H](COP(=O)(O)O)[C@@H](O)[C@H]2O)c1NC=O [6b]
ForH [4]
  HPLC of product 7b: ForH demonstrates cyclase activity towards both 6a and 6b
